Reference: patent US12697330B2, “Therapeutic methods using vadadustat” (Akebia Therapeutics, Inc., priority 2021, dated 2026)

Assays:
Assay type in all cases: in vivo, human
healthy adults = experiment: Drug interaction study with co-administration of vadadustat in healthy adults; conditions: with probenecid, an inhibitor of UGT and OAT1/3 transporters
Source text: Sulfasalazine. Other Breast Cancer Resistance Protein Substrates. and Probenecid. Exposures to sulfasalazine (moderately) and mesalamine (mildly) were increased with co-administration of vadadustat based on a study in healthy adults. In subjects taking vadadustat, sulfasalazine and other clinically relevant substrates of the breast cancer resistance protein (BCRP) transporter (e.g., sulfasalazine, methotrexate, mitoxantrone, imatinib, irinotecan, lapatinib, topotecan, tenofovir, glecaprevir, pibrentasvir, or sofosbuvir), caution should be taken during the study. Probenecid, an inhibitor of UDP-glucuronosyltransferase (UGT) and the organic anion transporter (OAT)1/3 transporters, increased vadadustat area under the curve and is prohibited during the study.

[1] = Phase 1b study: safety and tolerability
Source text: All subjects were followed for safety for 30 days after the Day 10 visitor 30 days after their last dose of study drug (vadadustat or ESA) if they discontinued study drug treatment early. Subjects returned to the clinic for safety assessments 2-5 days after completing Day 10/EOT and concluded the study with a follow-up telephone call to assess for AEs and concomitant medications 30 days after their last dose of study drug.
Safety Endpoints. Safety could be evaluated by: adverse events (AE), electrocardiogram (ECG), vital signs measurements, and clinical laboratory values.
Safety Population was defined as all subjects who received at least one dose of study drug. This population was analyzed based upon the actual treatment received.

Hb = experiment: Phase 1b study: pharmacodynamics, Hb, reticulocytes, iron indices, hepcidin; conditions: 10-day Treatment period
Source text: PD Sampling. For all vadadustat and ESA treatment groups, in addition to EPO, blood samples for Hb, reticulocytes and iron indices for PD analyses were collected on Day 1, Day 6 and Day 10. Hepcidin were collected predose on Day 1, Day 6, and Day 10 for PD analysis.
Secondary Endpoints. For each treatment group, PD parameters included, but were not limited to, as deemed appropriate: hepcidin, erythropoietin (EPO), iron indices (iron, ferritin, total iron-binding capacity [TIBC], TSAT), Hb, and reticulocytes.

[2] = Phase 2 study, Main Study: pharmacokinetics (vadadustat and vadadustat-O-glucuronide concentration)
Protocol: PK/PD Endpoints. An exposure-response analysis of vadadustat and PD measures were conducted as deemed appropriate. The PK parameters included (but were not limited to) the following: area under concentration-time curve from dosing to last measurable concentration (AUClast), area under concentration-time curve from dosing to infinity (AUCinf), Cmax, apparent total body clearance (CL/F), apparent volume of distribution (Vd/F), and terminal half-life (t1/2). The PD parameters included (but were not limited to) the following: EPO, reticulocytes, iron, ferritin, TIBC, and hepcidin.
PK population: included all randomized subjects who received study drug (vadadustat or epoetin alfa) and had enough drug concentrations to estimate AUC and Cmax. Analysis of this population was based on the dose amount taken at the date of PK sampling for the vadadustat group.

hemodialysis subjects = experiment: Main Study: vadadustat versus epoetin alfa in hemodialysis subjects (Hb, ESA/RBC rescue, EPO levels)
Source text: The primary efficacy endpoint was to assess the mean change in Hb between baseline and the PEP (Weeks 10 to 12) in hemodialysis subjects.
The first key secondary efficacy endpoint was the proportion of subjects with Hb values within the target range (10.0 to 11.0 g/dL, inclusive) at the PEP (Weeks 10 to 12).
The second key secondary endpoint was the mean change in Hb from PEP (average Hb from Weeks 10 to 12) to the SEP (average Hb from Weeks 18 to 20) for subjects who transitioned to TIW vadadustat dosing. In the Main Study, the change in Hb from PEP to SEP for the 17 subjects who switched from QD to TIW was −0.4 g/dL.

[3] = system: total iron binding capacity (TIBC); experiment: Phase 2a clinical trials in stage 3, 4, or 5 CKD patients: iron-related parameters

Question: With O=C(O)CNC(=O)c1ncc(-c2cccc(Cl)c2)cc1O [vadadustat, {[5-(3-chlorophenyl)-3-hydroxypyridine-2-carbonyl]amino}acetic acid] as the compound, how does the “vadadustat area under the curve” value (healthy adults) read?
Answer: increased

Question: And the “incidence of drug-related Treatment Emergent Adverse Events (TEAEs)” value ([1]; 3 vadadustat treatment arms)?
Answer: infrequent and similar across all 3 treatment arms

Question: What about the safety concerns ([1]; 600, 750, 900 mg QD, 10 days) of the same compound?
Answer: No major safety concerns were observed

Question: And the tolerability ([1]; oral administration, 600, 750, 900 mg QD, 10 days)?
Answer: generally well tolerated

Question: What about the “mean Hb levels versus dose” value (Hb) of the same compound?
Answer: not a dose-dependent increase

Question: And the concentrations versus dose ([2]; TIW group)?
Answer: No dose dependent increases in concentrations

Question: And the “mean concentration versus time profiles, dose dependency” value ([2]; Week 1, Week 1+1 day, and Week 11)?
Answer: concentrations increased with dose levels

Question: And the “subjects receiving ESA administration as rescue” value (hemodialysis subjects; Baseline (inclusive) to Week 12 (inclusive), compared to epoetin alfa treated subjects)?
Answer: more

Question: And the “subjects receiving any ESA administration” value (hemodialysis subjects; Baseline (inclusive) to Week 20 (inclusive), compared to epoetin alfa treated subjects)?
Answer: more

Question: What about the “change in Hb from PEP (Weeks 10 to 12) to SEP (Weeks 18 to 20)” value (hemodialysis subjects; Main Study, 17 subjects who switched from QD to TIW) of the same compound?
Answer: -0.4 g/dL

Question: And the “mean change from baseline in Hb” value (hemodialysis subjects; Main Study, baseline to PEP (Weeks 10 to 12), compared to epoetin alfa treatment group, throughout)?
Answer: numerically lower

Question: What about the “mean (SD) Hb overall at Weeks 10 to 12” value (hemodialysis subjects; Main Study, compared to epoetin alfa) of the same compound?
Answer: lower

Question: What about the “mean change in Hb between baseline and the SEP” value (hemodialysis subjects; Main Study, compared to epoetin alfa treatment group) of the same compound?
Answer: lower

Question: What about the “proportion of subjects with RBC transfusion and RBC transfusion as rescue” value (hemodialysis subjects; across treatment groups, all study periods) of the same compound?
Answer: similar

Question: What about the “change from baseline in Hb” value (hemodialysis subjects; high epoetin alfa stratum, vadadustat 300 mg, after Week 10 Hb began to return towards baseline) of the same compound?
Answer: decrease from baseline in Hb up to Week 10

Question: What about the “number of subjects within target Hb range” value (hemodialysis subjects; high epoetin alfa stratum, vadadustat groups (particularly 300 mg) compared to epoetin alfa treatment group) of the same compound?
Answer: numerically lower

Question: And the “change from baseline in Hb” value (hemodialysis subjects; low epoetin alfa stratum, except for the vadadustat 300 mg group throughout treatment)?
Answer: no decrease from baseline in Hb was observed

Question: And the “proportion of subjects with Hb values within the target range (10.0 to 11.0 g/dL, inclusive) at Weeks 10 to 12” value (hemodialysis subjects; vadadustat 300 mg group of the high epoetin alfa stratum, lowest proportion)?
Answer: 8.3%

Question: With O=C(O)CNC(=O)c1ncc(-c2cccc(Cl)c2)cc1O [Compound 1, {[5-(3-chlorophenyl)-3-hydroxypyridine-2-carbonyl]amino}acetic acid] as the compound, how does the TIBC versus dose [3] read?
Answer: dose-related increase

Question: And the “serum iron levels with the increase in TIBC” value [3]?
Answer: not associated with an increase in serum iron levels

Question: What about the “transferrin saturation (TSAT)” value [3] of the same compound?
Answer: decrease

Question: And the “total iron binding capacity (TIBC) levels” value ([3]; 6 weeks post administration, compared to placebo treated patients)?
Answer: increase
